From patent US12428455B2, “Dominant negative CEBPB and CEBPD proteins and methods of use for decreasing viability of neoplastic cells” (The Trustees of Columbia University in the City of New York, priority 2018, dated 2025)
No end group written: not given here.

What was measured:
[1] = Solubility of peptide stock after dilution; format: physicochemical; details: 20 mM of each of arginine and glutamate added to peptide stock buffer
Experimental: (§1) In some implementations, the mixture of arg/glu may be added at a molarity of, or of about 5 mM, 10 mM, 15 mM, 20 mM, 25 mM, or 30 mM.

HCT116 cells = test: Apoptotic nuclei, propidium iodide flow cytometry, HCT116; format: cell-based; details: 20 μM, 3 days, vs untreated cells
Experimental: MDA-MB-231, MCF7, HCT116 and T98G cancer cell lines were treated for 3 days with 20 μM CP-dn-CEBPB and CP-dn-CEBPD peptides from stock solutions prepared without additives. Cultures were stained with propidium iodide and assessed for proportion of cells with apoptotic nuclei by flow cytometry.

[2] = test system: paclitaxel-resistant T98G cells; test: Cell number, paclitaxel-resistant T98G cells; format: cell-based; details: 6 days; 0 μM to 50 μM peptide or 0 nM to 50 nM paclitaxel
Experimental: Replicate cultures of T98G wild type cells and paclitaxel-resistant T98G cells were treated with 0 nM to 50 nM paclitaxel or 0 μM to 50 μM CP-dn-CEBPB or CP-dn-CEBPD peptides, maintained for 6 days, and then assessed for cell number. Paclitaxel resistant T98G cells were inhibited by both CP-dn-CEBPB (FIG. 28A) and CP-dn-CEBPD (FIG. 28B), but, as expected were not inhibited by paclitaxel (FIG. 28C). This establishes that CP-dn-CEBPB and CP-dn-CEBPD may be effective against chemotherapy-resistant cells.

A375 cells = test: A375 subcutaneous tumors, 10 or 20 mg/kg study; format: in vivo, NCR nude mice; details: 10 or 20 mg/kg intraperitoneally; for tumor growth (calculated tumor volumes): to day 24
Experimental: A375 cells were subcutaneously implanted in the flanks of NCR nude mice. After tumors had formed, the animals were treated intraperitoneally with 10 or 20 mg/kg of CP-dn-CEBPB, CP-dn-CEBPD or vehicle as indicated in the schema shown in FIG. 37A. Animal weight was monitored (FIG. 37B). Tumor sizes were measured and volumes calculated on each day of injection. […] FIG. 37D compares calculated individual and mean tumor volumes for vehicle, CP-dn-CEBPB and CP-dn-CEBPD treated animals on day 24.

[3] = test system: U251 gliblastoma multiforme cells; test: Cell number after peptide treatment, U251; format: cell-based; details: 6 days, 0 μM to 50 μM; stock without BSA
Experimental: (§2) Replicate cultures were exposed to the peptides the for 6 days at the indicated concentrations. Stock solutions of the peptides were prepared in buffer without added bovine serum albumin (BSA).

MDA-MB 231 cells = test: Colony forming activity in soft agar, MDA-MB 231; format: cell-based; details: 6 days; doses 0.05, 0.5 and 5 μM
Experimental: T98G (FIG. 21A), MDA-MB 231 (FIG. 21B), and HCT116 (FIG. 21C) cells were exposed to CP-DN-CEBPB and CP-DN-CEBPD for 6 days at doses of 0.05 μM 0.5 μM, and 5 μM while growing in soft agar. Growth was inhibited by does as low as 0.5 μM. T98G (FIG. 21D), MDA-MB 231 (FIG. 21E), and HCT116 (FIG. 21F) cells were exposed to CP-DN-CEBPB and CP-DN-CEBPD for 6 days at doses of 0.05 μM 0.5 μM, and 5 μM while growing on culture plates. Growth was inhibited by does as low as 0.5 μM.

LN229 glioblastoma cells = test: Cell number after peptide treatment, LN229; format: cell-based, human; details: for growth and survival of LN229 cells: 6 days, 0 μM to 50 μM, stock without BSA
Experimental: as §1, §2

T98G cells = test: Scratch migration assay, T98G; format: cell-based; details: 20 hours, 20 μM or 40 μM
Experimental: Monolayers of MDA-MB 231 or T98G cells were subjected to formation of a scratch at 0 time and cultured for 20 hours in 20 μM or 40 μM CP-DN-CEBPB and CP-DN-CEBPD. Multiple images taken at 0 time and after 20 hours were analyzed for gap width of the scratches into which cells migrated or not. Example images for T98G are found in FIG. 22A, with compiled data for the T98G samples in FIG. 22B. Example images for MDA-MB 231 are found in FIG. 22C, with compiled data for the MDA-MB 231 samples in FIG. 22D.

[4] = test system: HIEC-6 non-cancer human intestinal epithelial cells; test: Cell number after peptide treatment, HIEC-6; format: cell-based; details: 6 days, 0 μM to 50 μM; stock without BSA
Experimental: Replicate cultures of HIEC-6 non-cancer human intestinal epithelial cells, MCF10A non-cancer human breast epithelial cells, or normal human astrocytes were exposed to CP-DN-CEBPB or CP-DN-CEBPD, for 6 days at doses of 0 μM to 50 μM. […] Stock solutions of the peptides were prepared in buffer without added bovine serum albumin (BSA).

Sequence | solubility after dilution to the concentration applied to cultured LN229 cells [1] | proportion of cells with apoptotic nuclei (HCT116 cells) | inhibition of paclitaxel-resistant T98G cells (cell number) [2] | side effects (animal weight monitored) (A375 cells) | tumor growth (calculated tumor volumes) (A375 cells) | growth and survival of U251 cells [3] | lowest dose at which growth was inhibited, soft agar (MDA-MB 231 cells) [µM] | growth and survival of LN229 cells (LN229 glioblastoma cells) | effect of adding arg/glu mixture at 2 mM (LN229 glioblastoma cells; cultured LN229 cells) | cell migration into scratch (gap width) (T98G cells) | number of HIEC-6 cells [4] | shift of IC50 by 20 mM arginine and glutamate (LN229 glioblastoma cells; cultured LN229 cells) [fold]
RQIKIWFQNRRMKWKKLETQHKVLELTAENERLQKKVEQLSRELSTLRNLFKQL [CP-DN-CEBPB] | maintained solubility | increased apoptotic cell death | inhibited | no apparent side effects | suppressed tumor growth | decrease in growth and survival | 0.5 | decrease in growth and survival | only minimal effect | able to inhibit migration | did not cause a dose-dependent decrease | 
RQIKIWFQNRRMKWKKLVELSAENEKLHQRVEQLTRDLAGLRQFFK [CP-DN-CEBPD] | maintained solubility | increased apoptotic cell death | inhibited | no apparent side effects | suppressed tumor growth | decrease in growth and survival | 0.5 | decrease in growth and survival | only minimal effect | able to inhibit migration | did not cause a dose-dependent decrease | 10
